From patent US20090258098A1, “PENETRATING CARRIER, ANTIFUNGAL COMPOSITION USING THE SAME AND METHOD FOR TREATMENT OF DERMATOPHYTE INFECTIONS” (priority 2008, published 2009)

Tests used:
[1] = tested on: dermatophytic fungal strains; test: Disk assay of essential oil components; assay type: cell-based; settings: disk loaded with 500, 1000, 1500 or 3000 ppm
Protocol: Various embodiments of the penetrating carrier system of the present invention were tested for their antimicrobial/biostatic potential by a laboratory test method, which provides a qualitative and semi-qualitative procedure for the evaluation of antimicrobial activity by disk assay. All dermatophytic fungal strains (Table 1) were grown on modified Sabouraud agar (pH adjusted to 7). The cultures were grown for one week previous to the experiments at 30° C., while stock culture plates were maintained at 4° C. until needed. […] The sterile disk was then loaded with 500 ppm, 1000 ppm, 1500 ppm or 3000 ppm of the test compound. A control was provided by placing 2 ul of alcohol on plates that were inoculated for this purpose. The plates were incubated for seven (7) days at 30° C. The zone of inhibition was measured around each loaded disk in four directions. The average measurement was then determined and recorded in millimeters as the zone of inhibition.

Trichopyton rubrum = test: Minimum inhibitory concentration, poison media procedure; assay type: cell-based, Trichophyton rubrum
Protocol: (§1) Each individual essential oil component was mixed with molten modified Sabouraud agar in 100 ppm, 500 ppm, or 1000 ppm (v/v). The poison media agar was then poured and allowed to cool for at least 48 hours. Separate cultures of four dermatophytes (i.e.: E. floccosum, M. gypseum, T. mentagrophytes, and T. rubrum) were grown on modified Sabouraud agar for four days until a confluent mat of mycelium developed. The four cultures were then cut into 8 mm plugs and placed upside down with the fungi culture on the surface of the poison media. This procedure was run in triplicate. In addition, several mixtures containing various combinations of the essential oil components were tested using the same procedure. The plates were incubated for one week at 30° C. Plates were then examined for growth. Plates with no visible growth after one week on the poison media were listed as fungistatic
(§2) Plugs showing no growth on the poison media were then transferred to modified SDA, allowed to incubate for an additional week at 30° C., and then reexamined for growth. All components were run in triplicate. Plates with no growth after the additional week were listed as fungicidal.

[2] = tested on: four dermatophytes (E. floccosum, M. gypseum, T. mentagrophytes, and T. rubrum); test: Poison media procedure; assay type: cell-based; settings: 100 ppm
Protocol: as §1, §2

Microsporum gypseum = test: Minimum inhibitory concentration, poison media procedure; assay type: cell-based
Protocol: as §1, §2

Epidermophyton floccosum = test: as above; assay type: cell-based
Protocol: as §1, §2

[3] = tested on: Trichophyton mentagrophytes; test: as above; assay type: cell-based
Protocol: as §1, §2

[4] = 100 ppm (v/v) in modified Sabouraud agar, one week at 30° C.
[5] = 500 ppm (v/v) in modified Sabouraud agar, one week at 30° C.
[6] = 1000 ppm (v/v) in modified Sabouraud agar, one week at 30° C.

Row | Structure (SMILES) | Rank among essential oil components in the disk assay [1] | Growth on poison media (fungistatic / fungicidal / growth) (Trichopyton rubrum; [4]) | Growth on poison media (fungistatic / fungicidal / growth) (Trichopyton rubrum; [5]) | Growth on poison media (fungistatic / fungicidal / growth) (Trichopyton rubrum; [6]) | Inhibition of growth [2] | Growth on poison media (fungistatic / fungicidal / growth) (Microsporum gypseum; [4]) | Growth on poison media (fungistatic / fungicidal / growth) (Microsporum gypseum; [5]) | Growth on poison media (fungistatic / fungicidal / growth) (Microsporum gypseum; [6]) | Growth on poison media (fungistatic / fungicidal / growth) (Epidermophyton floccosum; [4]) | Growth on poison media (fungistatic / fungicidal / growth) (Epidermophyton floccosum; [5]) | Growth on poison media (fungistatic / fungicidal / growth) (Epidermophyton floccosum; [6]) | Growth on poison media (fungistatic / fungicidal / growth) [3, 4] | Growth on poison media (fungistatic / fungicidal / growth) [3, 5] | Growth on poison media (fungistatic / fungicidal / growth) [3, 6] | further results
1 | Cc1ccc(C(C)C)cc1O [Carvacrol] | most inhibitory | fungistatic | fungicidal | fungicidal | inhibit the growth of several organisms | fungistatic | fungicidal | fungicidal | [empty] | fungicidal | fungicidal | [empty] | fungicidal | fungicidal | –
2 | O=CC=Cc1ccccc1 [Cinnamaldehyde] | most inhibitory | [empty] | fungicidal | fungicidal | – | [empty] | fungicidal | fungicidal | [empty] | fungicidal | fungicidal | [empty] | [empty] | fungicidal | –
3 | CC(C)=CCCC(C)=CC=O [Citral] | most inhibitory | [empty] | [empty] | fungicidal | – | [empty] | [empty] | fungicidal | [empty] | [empty] | [empty] | [empty] | [empty] | fungistatic | –
4 | C=CCc1ccc(O)c(OC)c1 [Eugenol] | most inhibitory | [empty] | fungistatic | fungicidal | – | [empty] | fungicidal | fungicidal | [empty] | fungicidal | fungicidal | [empty] | fungistatic | fungistatic | –
5 | C=CCc1ccc(OC)c(OC)c1 [Methyl Eugenol] | – | – | – | – | – | – | – | – | – | – | – | – | – | – | Growth on poison media (fungistatic / fungicidal / growth) (Trichopyton rubrum; 168 h, 100 ppm): [empty]; Growth on poison media (fungistatic / fungicidal / growth) (Trichopyton rubrum; 168 h, 500 ppm): fungistatic; Growth on poison media (fungistatic / fungicidal / growth) (Trichopyton rubrum; 168 h, 1000 ppm): fungistatic; Growth on poison media (fungistatic / fungicidal / growth) (Microsporum gypseum; 168 h, 100 ppm): [empty]; Growth on poison media (fungistatic / fungicidal / growth) (Microsporum gypseum; 168 h, 500 ppm): fungistatic; Growth on poison media (fungistatic / fungicidal / growth) (Microsporum gypseum; 168 h, 1000 ppm): fungistatic; Growth on poison media (fungistatic / fungicidal / growth) (Epidermophyton floccosum; 168 h, 100 ppm): [empty]; Growth on poison media (fungistatic / fungicidal / growth) (Epidermophyton floccosum; 168 h, 500 ppm): fungistatic; Growth on poison media (fungistatic / fungicidal / growth) (Epidermophyton floccosum; 168 h, 1000 ppm): fungistatic; Growth on poison media (fungistatic / fungicidal / growth) ([3]; 168 h, 100 ppm): [empty]; Growth on poison media (fungistatic / fungicidal / growth) ([3]; 168 h, 500 ppm): fungistatic; Growth on poison media (fungistatic / fungicidal / growth) ([3]; 168 h, 1000 ppm): fungistatic
6 | Cc1ccc(C(C)C)c(O)c1 [Thymol] | most inhibitory | fungicidal | fungicidal | fungicidal | inhibit the growth of several organisms | fungistatic | fungicidal | fungicidal | fungistatic | fungicidal | fungicidal | fungistatic | fungicidal | fungicidal | –
